Patent US9884819B2, “Tetrahydrocarbazole inhibitors of SIRT1 receptors” (Auspex Pharmaceuticals, Inc., priority 2016, dated 2018)

Legend:
[1] = In vitro human liver microsomal stability assay; type: in vitro ADME; conditions: for Percent Remaining (%) 0 min / Percent Remaining (%) 15 min / Percent Remaining (%) 30 min / Percent Remaining (%) 60 min / Percent Remaining (%) 120 min: human liver microsomes 2 mg/mL, 1 μM compound; for Percent Remaining (%) 0 min / Percent Remaining (%) 15 min / Percent Remaining (%) 30 min / Percent Remaining (%) 60 min / Percent Remaining (%) 120 min / Percent Remaining (%) 120 min w/o NADPH: mean; for Percent Remaining (%) 120 min w/o NADPH: 120 min without NADPH; for CLint scaled at 1 μM / half-life at 1 μM: pH 7.4
Method: Human liver microsomal stability assays are conducted at 2 mg per mL liver microsome protein with an NADPH-generating system consisting of NADP (1 mM, pH 7.4), […] (5 mM, pH 7.4), and glucose-6-phosphate dehydrogenase (1 unit/mL). Test compounds were prepared as solutions in DMSO and added to the assay mixture (1 μM, final concentration in incubation) and were incubated at 37±1° C. […] Samples were centrifuged (920×g for 10 min at 10° C.) in 96-well plates. Supernatant fractions were analyzed by LC-MS/MS to determine the percent remaining and estimate the degradation half-life of the test compounds.

[2] = target: T1, CYP1A2 (Homo sapiens, UniProt P05177); test: In vitro metabolism using human cytochrome P450 enzymes (CYP1A2); type: in vitro ADME; conditions: for Clint / half-life at 0.2 mM: Cyp 1A2; for Percent Remaining (%) 0 min: Cyp 1A2, 0 min; for Percent Remaining (%) 0 min / Percent Remaining (%) 15 min / Percent Remaining (%) 30 min / Percent Remaining (%) 45 min / Percent Remaining (%) 60 min: mean; for Percent Remaining (%) 15 min: Cyp 1A2, 15 min; for Percent Remaining (%) 30 min: Cyp 1A2, 30 min; for Percent Remaining (%) 45 min: Cyp 1A2, 45 min; for Percent Remaining (%) 60 min: Cyp 1A2, 60 min; for half-life at 0.2 mM: human, recombinant CYP1A2 (baculovirus expression system), pH 7.4
T1 construct: purchased BD Biosciences, San Jose, Calif
T1 sequence (P05177 1-516): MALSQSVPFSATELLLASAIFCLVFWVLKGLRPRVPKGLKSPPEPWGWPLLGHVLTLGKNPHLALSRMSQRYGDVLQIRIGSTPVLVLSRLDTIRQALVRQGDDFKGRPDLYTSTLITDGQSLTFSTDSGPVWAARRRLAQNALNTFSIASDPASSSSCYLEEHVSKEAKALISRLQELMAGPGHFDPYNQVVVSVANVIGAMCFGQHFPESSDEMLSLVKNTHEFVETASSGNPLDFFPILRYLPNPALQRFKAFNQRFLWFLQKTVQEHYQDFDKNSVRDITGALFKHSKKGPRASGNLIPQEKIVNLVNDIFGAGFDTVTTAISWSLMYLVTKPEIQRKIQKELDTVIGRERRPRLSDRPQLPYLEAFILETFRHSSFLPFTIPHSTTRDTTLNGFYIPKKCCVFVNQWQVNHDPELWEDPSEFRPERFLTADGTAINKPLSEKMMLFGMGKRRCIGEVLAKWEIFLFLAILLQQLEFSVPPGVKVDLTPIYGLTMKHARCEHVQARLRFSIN

[3] = cited from earlier work
[4] = test system: R6/2 mouse; conditions: transgenic r6/2 mouse model; cited from earlier work
[5] = test system: drosophila model of HD; conditions: cited from earlier work
[6] = target: CYP3A4 (Homo sapiens, UniProt P08684); test: In vitro metabolism using human cytochrome P450 enzymes (CYP3A4); conditions: for Clint: Cyp 3A4; for Percent Remaining (%) 0 min: Cyp 3A4, 0 min; for Percent Remaining (%) 0 min / Percent Remaining (%) 15 min / Percent Remaining (%) 30 min / Percent Remaining (%) 45 min / Percent Remaining (%) 60 min: mean; for Percent Remaining (%) 15 min: Cyp 3A4, 15 min; for Percent Remaining (%) 30 min: Cyp 3A4, 30 min; for Percent Remaining (%) 45 min: Cyp 3A4, 45 min; for Percent Remaining (%) 60 min: Cyp 3A4, 60 min; for half-life at 0.2 mM: human, pH 7.4
[7] = human liver microsomes, degradation half-life
[8] = human, single-dose phase, average
[9] = human, single-dose phase, range
[10] = recombinant CYP3A4 (baculovirus expression system)

CYP3A4, sequence (P08684 whole entry): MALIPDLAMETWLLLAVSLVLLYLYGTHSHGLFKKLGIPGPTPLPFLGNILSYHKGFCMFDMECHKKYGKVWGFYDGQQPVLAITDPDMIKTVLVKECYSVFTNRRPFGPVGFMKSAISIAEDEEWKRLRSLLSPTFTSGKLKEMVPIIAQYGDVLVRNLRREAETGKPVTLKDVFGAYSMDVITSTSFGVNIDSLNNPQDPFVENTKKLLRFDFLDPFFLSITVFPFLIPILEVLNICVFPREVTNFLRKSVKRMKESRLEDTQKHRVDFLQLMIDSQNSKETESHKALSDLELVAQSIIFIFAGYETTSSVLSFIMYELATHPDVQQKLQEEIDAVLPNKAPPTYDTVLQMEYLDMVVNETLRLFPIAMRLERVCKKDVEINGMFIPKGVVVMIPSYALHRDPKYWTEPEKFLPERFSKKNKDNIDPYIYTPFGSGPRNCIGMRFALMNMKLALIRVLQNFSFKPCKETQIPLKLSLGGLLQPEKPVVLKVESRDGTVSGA

SMILES | Percent Remaining (%) 0 min [1] [%] | Percent Remaining (%) 15 min [1] [%] | Percent Remaining (%) 30 min [1] [%] | Percent Remaining (%) 60 min [1] [%] | Percent Remaining (%) 120 min [1] [%] | Percent Remaining (%) 120 min w/o NADPH ([1]; human liver microsomes) [%] | CLint scaled at 1 μM ([1]; human liver microsomes) [mL/min/kg] | half-life at 1 μM [1, 7] [min] | Clint [2] [mL/min/pmol] | Percent Remaining (%) 0 min [2] [%] | Percent Remaining (%) 15 min [2] [%] | Percent Remaining (%) 30 min [2] [%] | Percent Remaining (%) 45 min [2] [%] | Percent Remaining (%) 60 min [2] [%] | Clint [6] [mL/min/pmol] | Percent Remaining (%) 0 min [6] [%] | Percent Remaining (%) 15 min [6] | Percent Remaining (%) 30 min [6] | Percent Remaining (%) 45 min [6] | Percent Remaining (%) 60 min [6] | other results
O=C(c1ccc(F)cc1)C1CCN(CCn2c(=O)[nH]c3ccccc3c2=O)CC1 [Ketanserin] | 100 | 78.08 | 64.73 | 44.75 | 26.52 | 97.70 | – | – | – | – | – | – | – | – | – | – | – | – | – | – | Clint ([1]; human liver microsomes): 39.88 mL/min/kg; T1/2 [1, 7]: 43.58 min
NC(=O)C1CCCc2c1[nH]c1ccc(Cl)cc21 (stereo not shown) [Example 1, 6-chloro-2,3,4,9-tetrahydro-1H-carbazole-1-carboxamide] | 100 | 93.37 | 90.46 | 73.66 | 52.94 | 102.02 | 13.6 | 128 | 0.0002 | 100.00 | 46.28 | 24.21 | 16.02 | 11.55 | 0.00013 | 100.00 | 63.43% | 55.02% | 54.21% | 51.13% | half-life at 0.2 mM [2]: 16.9 min; Intersubject variability (% CV) in AUC(0,∞), average [3, 8]: 56%; Intersubject variability (% CV) in Cmax, average [3, 8]: 33%; Intersubject variability (% CV) in AUC(0,∞) [3, 9]: 35-71%; Intersubject variability (% CV) in Cmax [3, 9]: 23-46%; Safety and tolerability in human subjects ([3]; recent clinical trial (Westerberg et al.)): safe and well-tolerated; Effects on life span and psychomotor and histological endpoints [4]: statistically significant effects on life span; Neuroprotection [5]: neuroprotective; half-life at 0.2 mM [6, 10]: 52.5 min
Cc1ncc2n1-c1ccc(Cl)cc1C(c1ccccc1F)=NC2 [Midazolam] | – | – | – | – | – | – | – | – | – | – | – | – | – | – | >0.0014 | 100.00 | BQL | BQL | BQL | BQL | half-life at 0.2 mM ([6]; recombinant enzyme): < 5 min
[2H]C1(C(N)=O)CCCc2c1[nH]c1ccc(Cl)cc21 (stereo not shown) [Example 2, 6-chloro-1-deutero-2,3,4,9-tetrahydro-1H-carbazole-1-carboxamide] | 100 | 100.12 | 85.44 | 71.84 | 59.95 | 100.36 | 11.4 | 152 | 0.0002 | 100.00 | 48.53 | 27.30 | 17.05 | 12.99 | 0.00013 | 100.00 | 69.07% | 59.14% | 54.63% | 53.05% | half-life at 0.2 mM [2]: 17.7 min; half-life at 0.2 mM [6, 10]: 52.8 min
[2H]C1([2H])c2c([nH]c3ccc(Cl)cc23)C(C(N)=O)C([2H])([2H])C1([2H])[2H] (stereo not shown) [Example 3, 6-chloro-2,3,4,9-tetrahydro-1H-carbazole-2,2,3,3,4,4-d6-1-carboxamide] | 100 | 92.39 | 86.96 | 70.69 | 52.83 | 96.74 | 13.5 | 128 | 0.00019 | 100.00 | 45.84 | 26.01 | 17.34 | 12.82 | 0.00010 | 100.00 | 69.80% | 61.49% | 63.89% | 60.39% | half-life at 0.2 mM [2]: 17.9 min; half-life at 0.2 mM [6, 10]: 70.7 min
CCOc1ccc(NC(C)=O)cc1 [Phenacetin] | – | – | – | – | – | – | – | – | 0.00018 | 100.00 | 53.02 | 31.01 | 20.20 | 15.08 | – | – | – | – | – | – | –
